Legend:
[1] = biological target: beta-glucosidases enzyme from Aspergillus niger (Aspergillus niger, UniProt A2RAL4); settings: 100 μM, 1 μM enzyme, 50 Celsius degree, pH 5.5; after instant (less then 5 minutes) incubation
Experimental: The volume of reaction was set at 500 μl and carried in 2 ml gas tight tubes, shacked constantly at 800 rpm, and the hydrolysis was sampled 100 μl after 5 minutes, 30 minutes and 60 minutes. The hydrolysates were analysed by HPAEC analytics according to Westereng et al. 2013 (vide supra).

Ethylene production = assay: Ethylene emanation of Arabidopsis seedlings (ETD 300 detector); format: in vivo, Arabidopsis thaliana; settings: 100 μM sprayed; 3 weeks in vitro seedlings
Experimental: Ethylene production was analysed in three independent experiments with the ETD 300 detector (Sensor-Sense, Nijmegen, the Netherlands) under a stop-and-flow routine where the gas from one vial accumulated in an interval of 10 min, and then flushed to the detector. Bars in FIG. 15 represent mean and standard deviation.

beta-glucosidases enzyme from Aspergillus niger, sequence (A2RAL4 20-860): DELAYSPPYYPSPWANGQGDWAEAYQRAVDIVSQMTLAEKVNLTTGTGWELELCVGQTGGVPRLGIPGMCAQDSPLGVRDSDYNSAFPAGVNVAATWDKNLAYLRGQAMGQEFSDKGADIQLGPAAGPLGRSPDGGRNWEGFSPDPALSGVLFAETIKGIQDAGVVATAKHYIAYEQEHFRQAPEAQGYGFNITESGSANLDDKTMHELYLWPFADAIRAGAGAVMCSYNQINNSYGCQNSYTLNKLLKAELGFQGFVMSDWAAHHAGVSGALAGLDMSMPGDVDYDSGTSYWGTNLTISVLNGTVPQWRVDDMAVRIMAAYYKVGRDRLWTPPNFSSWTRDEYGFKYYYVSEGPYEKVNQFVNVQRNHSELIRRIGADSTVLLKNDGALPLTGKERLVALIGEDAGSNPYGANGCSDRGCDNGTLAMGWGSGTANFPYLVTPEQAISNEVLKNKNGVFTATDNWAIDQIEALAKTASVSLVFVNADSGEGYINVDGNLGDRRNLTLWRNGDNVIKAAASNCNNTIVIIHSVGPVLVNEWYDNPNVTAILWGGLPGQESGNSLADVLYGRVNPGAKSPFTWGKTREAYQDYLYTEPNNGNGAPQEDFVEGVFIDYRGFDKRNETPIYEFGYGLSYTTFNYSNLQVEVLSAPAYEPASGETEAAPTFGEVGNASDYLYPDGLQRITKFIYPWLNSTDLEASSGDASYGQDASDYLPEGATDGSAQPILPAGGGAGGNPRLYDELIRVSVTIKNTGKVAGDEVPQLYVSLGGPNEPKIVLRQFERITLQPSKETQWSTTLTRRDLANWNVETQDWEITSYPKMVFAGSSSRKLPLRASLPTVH

Row | SMILES | resistance to digestion by beta-glucosidases [1] | Ethylene production versus mock-treated seedlings (Ethylene production)
1 | O=C1C(CO)OC(OC2C(CO)OC(O)C(O)C2O)C(O)C1O (stereo not drawn) [4-keto-cellobiose] | able to resist the digestion | –
2 | O=C(O)[C@H](O)[C@@H](O)[C@H](O[C@@H]1O[C@H](CO)[C@@H](O)[C@H](O)[C@H]1O)[C@H](O)CO [cellobionic acid, 4-O-β-D-glucopyranosyl-D-gluconic acid] | able to resist the digestion | higher
